1 compound from paper PMC7546004, “Targeting BCL10 by small peptides for the treatment of B cell lymphoma” (Theranostics, 2020) can be followed below.

Square brackets hold non-standard residues; d marks the D form. Peptide text beside a SMILES is read from it.

For data set [1], the system named is TMD8 and SU-DHL4 cells. Nature of the data set: Cell cycle analysis (PI, flow cytometry). In kind it is cell-based. To be noted: 5 μM or 10 μM, 24 h; two independent experiments. Here is the method:
For cell cycle analysis, cells were washed twice with cold PBS and fixed in 70% ethanol overnight at 4°C. Fixed cells were collected at 1800 rpm for 10 min and stained with PBS containing PI and DNase-free RNase A (Sigma-Aldrich) for 1h at room temperature in the dark. DNA content was measured by BD LSRII flow cytometer and data were analyzed in FloJo. […]
Committee of Changhai Hospital, the Second Military Medical University.
(§1) Immunohistochemistry (IHC)
(§2) Formalin-fixed paraffin -embedded tumor xenografts were sectioned, dewaxed and submitted to antigen retrieval. The anti- Ki67 (proteintech, 27309-1) antibody was used at a 1:500 dilution.
(§3) Biotin-conjugated secondary antibodies (MXB biotechnologies, KIT-9710) were used. Then avidin/biotin peroxidase (MXB biotechnologies, KIT-9710) was applied to the slides. Color was developed with diaminobenzoate chromogen peroxidase substrate (MXB biotechnologies, MAX007TM) and counterstained with […] (MXB biotechnologies, MAX007TM). Pictures were obtained using NanoZoomer-S60 microscope ([…]).

Data set [2] concerns SU-DHL6 cell xenograft tumors. Nature of the data set: Mouse xenograft model. In kind it is in vivo, NCG mice. Particulars: DRI-BCL10-P4 10 mg/kg Q.d. or BCL10-Ctl 5 mg/kg Q.d., i.v.; n=8; p=0.049, Mann-Whitney U test. The protocol:
(§4) Mouse xenograft experiments:
(§5) Six-week-old female NOD prkdc-/- IL-2Rg-/- (NCG) mice purchased from GemPharmatech Co., Lt d we re raised in a SPF- level Laboratory Animal Room. Low -passage 5x106 human TMD8, SU-DHL- 6 or 1x10^7 OCl-LY1 cells at 100μl were premixed with 100μl Matrigel (Corning Biocoat, cat. # 354234) and inoculated subcutaneously into the right flank of mice. When tumors reached an average size of 150 mm3, mice were randomly assigned into treatment groups (10 mg /kg DRI-BCL10- P4) or control groups (5 mg /kg BCL10- Ctl). Peptides were reconstituted in 5% DMSO/PBS and administered by i.v. injection. Tumor volumes were monitored by a digital caliper every other day and calculated using the formula: (smallest diameter2 x largest diameter)/2. Mice were weighed every day and sacrificed at the end of the treatment. T umors and main organs were harvested and we i ghte d at the moment of death. All animal experiments were approved by the Animal Institute Committee of Changhai Hospital, the Second Military Medical University.
as §1, §2
(§6) Biotin-conjugated secondary antibodies (MXB biotechnologies, KIT-9710) were used. […]

The nature of data set [3]: Tolerability in xenograft mice (body weight, histology of major organs). It counts as in vivo, NCG mice. Here is the method:
as §4, §5, §1, §2, §6

Data set [4] relates to TMD8 and SU-DHL4 cells. Nature of the data set: Apoptosis (annexin V / PI staining). In kind it is cell-based. Particulars: annexin V+/PI- plus annexin V+/PI+, 24 h; two independent experiments. The protocol:
([…]); shBcl10 ([…] TGT […]). Lentivirus production using […]
selected with puromycin (Invitrogen, A1113803) for 2 weeks. Log phase growing cells were seeded […]
The number cells were measured by flow […]
Cells were harvested and RNA was extracted and quantified. Synthesis of cDNA was performed […]
QuantStudio 6 Flex (Applied Biosystems). RNA was normalized by β-Actin or GAPDH mRNA. The following quantitative PCR primers were used: […]
hGAPDH-F: 5′-[…] T […]- 3’ […]
hGAPDH-R: 5’-TACT T TAT […]-3’ […]
hActin- F: 5’-[…]-3’ […]
hActin- R: 5’-TC A […]-3’ […]
hIL10- F: 5’-GGT […] TGTCTGA-3’ […]
hIL10- R: 5’-AGGGAGT […]-3’ […]
hIL6-R: 5’- […]-3 ’. […]
hBcl10-F: 5’-[…] TAGAAA-3’ […]
hBcl10-R: 5’-[…] T-3’ […]
wa sh e d and lysed with RIPA buffer. Biotinylated BCL10 -P4 in cells were determined by immunoblotting with Streptavidin (Cell signaling, cat. #3999S).
Apoptosis and cell cycle:
1:100 dilution for 15 min at room temperature in the dark. Signals from FL1 and FL3 channels were collected by MACSQuant analyzer and data were analyzed using FloJo (Ashland, OR). […]
For cell cycle analysis, cells were washed twice with cold PBS and fixed in 70% ethanol overnight at 4°C. […] DNA content was measured by BD LSRII flow cytometer and data were analyzed in FloJo. […]
All extracts were treated with DNase in column during RNA purification. RNA integrity was determined on an Agilent 2100 Bioanalyzer (Agilent Technologies, SantaClara, CA). […]

Data set [5] relates to TMD8 cell xenograft tumors. Kind of data set: Mouse xenograft model. It counts as in vivo, NCG mice. Here is the method:
as §4, §5, §1, §2, §3
(§7) Terminal deoxynucleotidyl transferase dUTP nick end labeling, TUNEL assay was used to detect apoptotic DNA fragmentation. All the experiments were performed according to the kit (KeyGEN Biotech, KGA703) instructions. Briefly, formalin-fixed paraff i n-embedded xenografted tumors were deparaffinized and pre-treated with trypsin to expose DNA. Endogenous peroxidase was quenched using 3% hydrogen peroxide followed by incubation with TdT enzyme for 1 hour. Then, antidigoxigenin-peroxidase was applied to the slides. Color was developed with diaminobenzoate chromogen peroxidase substrate and counterstained with methyl green. Pictures were obtained using NanoZoomer-S60 microscope ([…]).

The subject of data set [6] is OCI-LY1 cell xenograft tumors. Nature of the data set: Mouse xenograft model. In kind it is in vivo, NCG mice. To be noted: DRI-BCL10-P4 10 mg/kg or BCL10-Ctl 5 mg/kg daily, i.v.; Figure S8A-C. The protocol: as §4, §5, §1, §2, §3, §7
[7] abbreviates: TMD8 xenograft, 10 mg/kg, compared with control group.

Take `CC[C@@H](C)[C@@H](NC(=O)[C@@H](CCCCN)NC(=O)[C@H](NC(=O)[C@@H](Cc1c[nH]c2ccccc12)NC(=O)[C@@H](Cc1ccccc1)NC(=O)[C@@H](CCC(N)=O)NC(=O)[C@@H](CC(N)=O)NC(=O)[C@@H](CCCNC(=N)N)NC(=O)[C@@H](CCCNC(=N)N)NC(=O)[C@@H](CCSC)NC(=O)[C@@H](CCCCN)NC(=O)[C@@H](Cc1c[nH]c2ccccc12)NC(=O)[C@@H](CCCCN)NC(=O)[C@@H](CCCCN)NC(=O)[C@@H](CCCNC(=N)N)NC(=O)[C@H](NC(=O)[C@@H](CO)NC(=O)[C@@H](CO)NC(=O)[C@@H](CCCNC(=N)N)NC(=O)[C@@H](CCCCN)NC(=O)[C@@H](CCCNC(=N)N)NC(=O)[C@@H](C)NC(=O)CNC(=O)[C@@H](CCCCN)NC(=O)[C@@H](CC(C)C)NC(=O)[C@@H](CC(C)C)NC(=O)[C@@H](CC(=O)O)NC(=O)[C@@H](Cc1ccc(O)cc1)NC(=O)[C@@H](CC(C)C)NC(=O)[C@@H](CCC(N)=O)NC(=O)[C@H](N)CCC(=O)O)[C@H](C)O)[C@H](C)CC)C(=O)N[C@H](CCC(N)=O)C(=O)N[C@H](CCCNC(=N)N)C(=O)N[C@H](CC(=O)O)C(=O)O` [DRI-BCL10-P4] (H-[dE][dQ][dL][dY][dD][dL][dL][dK]G[dA][dR][dK][dR][dS][dS][dT][dR][dK][dK][dW][dK][dM][dR][dR][dN][dQ][dF][dW][dI][dK][dI][dQ][dR][dD]-OH): the “cell cycle profile of TMD8 and SU-DHL4 cells” value in the data set with TMD8 and SU-DHL4 cells [1] was “cell cycle arrest”. Further, the “growth of SU-DHL6 cell xenograft tumors” value in data set [2] is reported as “significantly inhibited the growth”. Moreover, the “adverse effects in the mice (body weight)” value in data set [3] (10 mg/kg Q.d., i.v., Figure 7C-F) was “without inducing notable adverse effects”. The “histological examination of the major organs (H&E)” value in data set [3] (10 mg/kg daily for 11 days, Figure S8D) was “did not result in discernible damage to these organs”. Besides, the “apoptosis of TMD8 and SU-DHL4 cells” value with TMD8 and SU-DHL4 cells [4] is “induced apoptosis”. The “growth of TMD8 cell xenograft tumors” value in data set [5] (DRI-BCL10-P4 10 mg/kg Q.d. or BCL10-Ctl 5 mg/kg Q.d., i.v., n=8, p=0.013, Mann-Whitney U test) was “significantly inhibited the growth”. In data set [5] (setting [7]), the “apoptosis rate in tumor sections (TUNEL staining)” value is “significant increase in the apoptosis rate” and the “proliferation in tumor sections (Ki67 staining)” value is “significant decrease in the proliferation”. The “growth of OCI-LY1 cell xenograft tumors” value in data set [6] is listed as “neither peptide significantly suppressed the growth”.
